Data on 17 compounds can be found in patent US10035800B2 (AbbVie Inc., priority 2013, dated 2018).

Like-named read-outs stand apart in the source and are kept apart here.

One assay addresses T1, BRD4 (BDI_K57-E168) (Homo sapiens, UniProt O60885).
T1 construct: BD1: amino acids K57-E168; made in house
The assay is described as follows: TR-FRET bromodomain binding assay, first bromodomain of BRD4. The settings on record: 100 nM probe. A digest of the protocol: (§1)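 Compound dilutions are mixed with His-tagged BRD4 bromodomain (8 nM), europium anti-His antibody (1 nM) and Alexa647 probe (BDI 100 nM; BDII 30 nM) in pH 6.0 buffer containing 2% DMSO. After equilibrating one hour at room temperature, TR-FRET is measured; percent inhibition is fitted to obtain IC50, from which Ki is calculated.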
A general note: Time-resolved FRET reads energy transfer from a long-lived donor to a nearby acceptor.

Assay [1] relates to IL-6 (Interleukin-6) production. Nature of the assay: LPS (lipopolysaccharide) induced IL-6 production mouse assay. Format: in vivo, mice. Particulars: oral administration 1 h before LPS 2.5 mg/kg ip, serum 2 h after LPS, p < 0.05 vs vehicle. The method, then:
LPS (Lipopolysaccharide) Induced IL-6 Production Mouse Assay
Compounds of the Examples listed in Table 2 were assayed for their ability to inhibit LPS (lipopolysaccharide) induced IL-6 (Interleukin-6) production in mice. Fox Chase SCID® female mice (Charles Rivers Labs, 5 per group) or CD1 female mice (5 per group) received an intraperitoneal challenge of lipopolysaccharide (2.5 mg/kg, L2630 E. coli 0111:B4) one hour after oral administration of compounds. Mice were euthanized 2 hours after lipopolysaccharide injection, blood was removed by cardiac puncture, and then the serum harvested from the blood samples was frozen at −80° C. On the day of the assay the serum samples were brought to room temperature and then diluted 1:20 in phosphate-buffered saline containing 2% bovine serum albumin. Interleukin-6 measurements were performed using a cytokine assay from Meso Scale Discovery (Gaithersburg, Md.) for mouse serum analysis according to the manufacturer's protocol and read on a SECTOR Imager 6000 (Meso Scale Discovery, Gaithersburg, Md.) instrument. Statistical analysis was performed using Prism software (version 5.0) incorporating Dunnett's one way ANOVA. The IL-6 mean and standard deviation of the group of vehicle treated animals were compared with the IL-6 mean and standard deviation of the group treated with drug. A p value <0.05 means that there is less than a 5% probability that the mean values in the two groups are equal.

Assay [2] deals with breast cancer cell line MX-1. Nature of the assay: MX-1 cell line proliferation assay. Format: cell-based. The settings on record: MX-1 cells, 3-day proliferation assay, Cell Titer Glo, read-out: Cellular proliferation: EC50. A digest of the protocol: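 MX-1 cells at 5000/well, in RPMI 1640 with 10% FBS, were exposed to compounds for 3 days. Final concentrations ranged 3 μM–0.1 nM or 1 μM–0.03 nM, in 3-fold steps. Cell Titer Glo luminescence was normalized to DMSO and fitted sigmoidally for EC50; overall MSR 2.1.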
For orientation: ATP-based viability assays read luminescence as a measure of living cells.

In another assay the target is T2, BRD4 (BDII_E352-M457) (Homo sapiens, UniProt O60885).
T2 construct: protocol; made in house
Nature of the assay: TR-FRET bromodomain binding assay, second bromodomain of BRD4. The settings on record: 30 nM probe. A digest of the protocol:
as §1

Setting [3] is: TR-FRET assay protocol E (compound 9.19 μM-150 pM).
[4] abbreviates: TR-FRET assay protocol G (compound 0.92 μM-15 pM).
[5] abbreviates: TR-FRET assay protocol B (compound 49.02 μM-15.63 nM).

As usually defined, the Ki is the equilibrium dissociation constant of an inhibitor or competing ligand from its target. A low value points to tighter binding. As for “4-((4,4-difluorocyclohexyl)methyl)-10-methyl-7-((methylsulfonyl)methyl)-3,4-dihydro-1H-1,4,10-triazadibenzo[cd,f]azulen-11(10H)-one [Example 27]”, the Ki came to 1.19 nM at BRD4 (BDI_K57-E168) (setting [3]) and 1.01 nM on BRD4 (BDII_E352-M457) (setting [3]). Also, the “% inhibition of LPS induced IL-6 production” value (“% inhibition” for short) in assay [1] (mouse strain SCID) is 79%. Also, in assay [2], the EC50 was determined as 1.27 nM.
For “4-(cyclopropylmethyl)-10-methyl-7-((methylsulfonyl)methyl)-3,4-dihydro-1H-1,4,10-triazadibenzo[cd,f]azulen-11(10H)-one [Example 6]” the same measures were 1.08 nM, 1.71 nM, 64% and 2.01 nM.
With “5,7-difluoro-10-methyl-4-((tetrahydrofuran-3-yl)methyl)-3,4-dihydro-1H-1,4,10-triazadibenzo[cd,f]azulen-11(10H)-one [Example 42]”, the figures for the Ki on BRD4 (BDI_K57-E168) (setting [4]) and on BRD4 (BDII_E352-M457) (setting [4]) were 1.56 nM and 2.03 nM, respectively. The “% inhibition” value in assay [1] (mouse strain CD1) is reported as 86%. In assay [2], the EC50 stood at 5.44 nM.
In the case of “10-methyl-7-((methylsulfonyl)methyl)-4-((tetrahydro-2H-pyran-3-yl)methyl)-3,4-dihydro-1H-1,4,10-triazadibenzo[cd,f]azulen-11(10H)-one [Example 29]”, the Ki on BRD4 (BDI_K57-E168) (setting [3]) worked out at 6.95 nM; on BRD4 (BDII_E352-M457) (setting [3]), 2.74 nM. Further, the “% inhibition” value in assay [1] (mouse strain SCID) is recorded as 76%. The EC50 in assay [2] came out at 1.03 nM.
For `COCCC1c2c[nH]c3c(=O)n(C)cc(c23)-c2cc(CS(C)(=O)=O)ccc2N1CC1CC1` (racemic) [Example 15, 4-(cyclopropylmethyl)-3-(2-methoxyethyl)-10-methyl-7-((methylsulfonyl)methyl)-3,4-dihydro-1H-1,4,10-triazadibenzo[cd,f]azulen-11(10H)-one], the Ki is 5.22 nM at BRD4 (BDI_K57-E168) (setting [3]) and 0.631 nM at BRD4 (BDII_E352-M457) (setting [3]). Moreover, the “% inhibition” value in assay [1] (mouse strain SCID) is given as 68%. The EC50 in assay [2] was found to be 8.75 nM.
As for `Cn1cc2c3c(c[nH]c3c1=O)CN(C1CCCOC1)c1ccc(CS(C)(=O)=O)cc1-2` (racemic) [Example 182, 10-methyl-7-((methylsulfonyl)methyl)-4-(tetrahydro-2H-pyran-3-yl)-3,4-dihydro-1H-1,4,10-triazadibenzo[cd,f]azulen-11(10H)-one], the Ki on BRD4 (BDI_K57-E168) (setting [4]) is 1.31 nM; on BRD4 (BDII_E352-M457) (setting [4]) it was 2 nM. Moreover, in assay [1] (mouse strain CD1), the “% inhibition” value came to 77%. Besides, the EC50 in assay [2] amounted to 1.08 nM.
Consider `CCOC(=O)C1c2c[nH]c3c(=O)n(C)cc(c23)-c2cc(CS(C)(=O)=O)ccc2N1CC1CC1` (centres unmarked) [Example 7, ethyl 4-(cyclopropylmethyl)-10-methyl-7-((methylsulfonyl)methyl)-11-oxo-3,4,10,11-tetrahydro-1H-1,4,10-triazadibenzo[cd,f]azulene-3-carboxylate], for which the Ki on BRD4 (BDI_K57-E168) (setting [5]) came out at 51.1 nM; at BRD4 (BDII_E352-M457) (setting [5]), 26.7 nM. Also, the “% inhibition” value in assay [1] (mouse strain SCID) amounted to 53%. Besides, the EC50 in assay [2] turned out to be 14.5 nM.
Regarding `Cn1cc2c3c(c[nH]c3c1=O)CN(c1ccc(F)cc1)c1ccc(S(C)(=O)=O)cc1-2` [Example 8, 4-(4-fluorophenyl)-10-methyl-7-(methylsulfonyl)-3,4-dihydro-1H-1,4,10-triazadibenzo[cd,f]azulen-11(10H)-one], the values for the Ki at BRD4 (BDI_K57-E168) (setting [3]) and at BRD4 (BDII_E352-M457) (setting [3]) were 0.646 nM and 3.77 nM, respectively. Besides, the “% inhibition” value in assay [1] (mouse strain SCID) worked out at 53%. The EC50 in assay [2] amounted to 5.68 nM.
Take `CCS(=O)(=O)Nc1cnc2c(c1)-c1cn(C)c(=O)c3[nH]cc(c13)CN2c1ccc(F)cc1F` [Example 23, N-(4-(2,4-difluorophenyl)-10-methyl-11-oxo-3,4,10,11-tetrahydro-1H-1,4,5,10-tetraazadibenzo[cd,f]azulen-7-yl)ethanesulfonamide]: the values for the Ki on BRD4 (BDI_K57-E168) (setting [3]) and at BRD4 (BDII_E352-M457) (setting [3]) were 1.7 nM and 0.783 nM, respectively. In assay [1] (mouse strain SCID), the “% inhibition” value is recorded as 54%. Besides, the EC50 in assay [2] amounted to 7 nM.
Take `CCCCN1Cc2c[nH]c3c(=O)n(C)cc(c23)-c2cc(CS(C)(=O)=O)ccc21` [Example 24, 4-butyl-10-methyl-7-((methylsulfonyl)methyl)-3,4-dihydro-1H-1,4,10-triazadibenzo[cd,f]azulen-11(10H)-one]: the values for the Ki on BRD4 (BDI_K57-E168) (setting [3]) and on BRD4 (BDII_E352-M457) (setting [3]) were 0.963 nM and 0.801 nM, respectively. The “% inhibition” value in assay [1] (mouse strain SCID) amounted to 78%. In addition, the EC50 in assay [2] amounted to 1.07 nM.
Turning to `Cn1cc2c3c(c[nH]c3c1=O)CN(CC1CCOC1)c1ccc(CS(C)(=O)=O)cc1-2` (centres unmarked) [Example 26], the Ki at BRD4 (BDI_K57-E168) (setting [4]) worked out at 0.701 nM; on BRD4 (BDII_E352-M457) (setting [4]) it was 0.719 nM. Further, the “% inhibition” value in assay [1] (mouse strain SCID) was 88%. Moreover, in assay [2], the EC50 is 1.03 nM.
In the case of `Cn1cc2c3c(c[nH]c3c1=O)CN(C1CCC(F)(F)CC1)c1ccc(CS(C)(=O)=O)cc1-2` [Example 30, 4-(4,4-difluorocyclohexyl)-10-methyl-7-((methylsulfonyl)methyl)-3,4-dihydro-1H-1,4,10-triazadibenzo[cd,f]azulen-11(10H)-one], the figures for the Ki on BRD4 (BDI_K57-E168) (setting [3]) and at BRD4 (BDII_E352-M457) (setting [3]) were 4.98 nM and 1.36 nM, respectively. Further, the “% inhibition” value in assay [1] (mouse strain SCID) is 81%. For the same compound, the EC50 in assay [2] was 1.39 nM.
For the compound `[2H]C1([2H])c2c[nH]c3c(=O)n(C)cc(c23)-c2cc(CS(C)(=O)=O)ccc2N1c1ccc(F)cc1` [Example 31, 4-(4-fluorophenyl)-(3,3-^2H2)-10-methyl-7-((methylsulfonyl)methyl)-3,4-dihydro-1H-1,4,10-triazadibenzo[cd,f]azulen-11(10H)-one], the Ki at BRD4 (BDI_K57-E168) (setting [4]) was determined as 1.67 nM; at BRD4 (BDII_E352-M457) (setting [4]), 1.18 nM. Moreover, the “% inhibition” value in assay [1] (mouse strain SCID) came to 83%. For the same compound, the EC50 in assay [2] (Homo sapiens, MX1, 72 h) is 0.752 nM.
`Cn1cc2c3c(c(C(N)=O)[nH]c3c1=O)CN(c1ccc(Cl)cc1)c1ccc(CS(C)(=O)=O)cc1-2` [Example 58, 4-(4-chlorophenyl)-10-methyl-7-((methylsulfonyl)methyl)-11-oxo-3,4,10,11-tetrahydro-1H-1,4,10-triazadibenzo[cd,f]azulene-2-carboxamide]: the Ki on BRD4 (BDI_K57-E168) (setting [4]) is 2.02 nM; at BRD4 (BDII_E352-M457) (setting [4]), 0.617 nM. In addition, the “% inhibition” value in assay [1] (mouse strain CD1) was 39%. Also, the EC50 in assay [2] came out at 5.38 nM.
In the case of `CCNC(=O)c1[nH]c2c(=O)n(C)cc3c2c1CN(c1ccc(Cl)cc1)c1ccc(CS(C)(=O)=O)cc1-3` [Example 59, 4-(4-chlorophenyl)-N-ethyl-10-methyl-7-((methylsulfonyl)methyl)-11-oxo-3,4,10,11-tetrahydro-1H-1,4,10-triazadibenzo[cd,f]azulene-2-carboxamide], the Ki amounted to 3.1 nM at BRD4 (BDI_K57-E168) (setting [4]) and 0.972 nM on BRD4 (BDII_E352-M457) (setting [4]). Besides, the “% inhibition” value in assay [1] (mouse strain CD1) turned out to be 68%. For the same compound, the EC50 in assay [2] worked out at 3.8 nM.
Turning to `CN1CCN(C(=O)c2[nH]c3c(=O)n(C)cc4c3c2CN(c2ccc(Cl)cc2)c2ccc(CS(C)(=O)=O)cc2-4)CC1` [Example 60, 4-(4-chlorophenyl)-10-methyl-2-(4-methylpiperazine-1-carbonyl)-7-((methylsulfonyl)methyl)-3,4-dihydro-1H-1,4,10-triazadibenzo[cd,f]azulen-11(10H)-one], the Ki was 2.55 nM at BRD4 (BDI_K57-E168) (setting [4]) and 33.1 nM at BRD4 (BDII_E352-M457) (setting [4]). Also, the “% inhibition” value in assay [1] (mouse strain CD1) is reported as 44%. Further, the EC50 in assay [2] came to 115 nM.
Regarding `CC(C)CN1Cc2c[nH]c3c(=O)n(C)cc(c23)-c2cc(CS(C)(=O)=O)ccc21` [Example 149, 4-isobutyl-10-methyl-7-((methylsulfonyl)methyl)-3,4-dihydro-1H-1,4,10-triazadibenzo[cd,f]azulen-11(10H)-one], the inhibition constant Ki at BRD4 (BDI_K57-E168) (setting [4]) came to 1.78 nM; on BRD4 (BDII_E352-M457) (setting [4]), 0.82 nM. The “% inhibition” value in assay [1] (mouse strain CD1) was determined as 86%. In addition, in assay [2], the EC50 was 1.93 nM.
